The subject of test [1] is Imatinib-resistant Bcr-Abl mutations. Conditions: cited from earlier work.
The test system of test [2] is Bcr-Abl kinase. Conditions: greater potency than Imatinib; cited from earlier work.
For test [3], the system named is Bcr-Abl E255K mutant. To be noted: cited from earlier work.
Test [4] has as its system BaF3 parental cell line that does not express Bcr-Abl. The experiment in a line: Cell proliferation assay, BaF3 parental cell line. The format is cell-based. Conditions: Mus musculus.
The test system of test [5] is K562. Description: Cell proliferation assay, K562. Conditions: K562, human cell line expressing wild type Bcr-Abl; 72 hours, Cell Titer Glo. The format is cell-based. The source says:
[Worded in the source for another cell line; this cell line is reported under the same test.] (§1) The adherent tumor cell proliferation assay used to test the compounds of the present invention involves a readout called Cell Titre-Glo developed by Promega (Cunningham, B A “A Growing Issue: Cell Proliferation Assays. Modern kits ease quantification of cell growth” The Scientist 2001, 15(13), 26; and Crouch, S P et al., “The use of ATP bioluminescence as a measure of cell proliferation and cytotoxicity” Journal of Immunological Methods 1993, 160, 81-88).
(§2) H460 cells (lung carcinoma, purchased from ATCC) were plated in 96-well plates at 3000 cells/well in complete media with 10% Fetal Calf Serum and incubated 24 hours at 37° C. Twenty-four hours after plating, test compounds were added over a final concentration range of 10 nM to 20 μM in serial dilutions at a final DMSO concentration of 0.2%. Cells were incubated for 72 hours at 37° C. in complete growth media after addition of the test compound. On day 4, using a Promega Cell Titer Glo Luminescent® assay kit, the cells were lysed and 100 microliters of substrate/buffer mixture was added to each well, mixed and incubated at room temperature for 8 minutes. The samples were read on a luminometer to measure the amount of ATP present in the cell lysates from each well, which corresponds to the number of viable cells in that well. Values read at 24-hour incubation were subtracted as Day 0. […]
A general note: Cellular ATP, detected with luciferase, serves as a proxy for viable cell number.

For test [6], the target named is T1, human recombinant c-Met (Homo sapiens, UniProt P08581).
T1 construct: C-terminal HIS-tagged intracellular kinase domain (956 to 1390 amino acids) human recombinant c-Met; His (C)
T1 sequence (P08581 956-1390): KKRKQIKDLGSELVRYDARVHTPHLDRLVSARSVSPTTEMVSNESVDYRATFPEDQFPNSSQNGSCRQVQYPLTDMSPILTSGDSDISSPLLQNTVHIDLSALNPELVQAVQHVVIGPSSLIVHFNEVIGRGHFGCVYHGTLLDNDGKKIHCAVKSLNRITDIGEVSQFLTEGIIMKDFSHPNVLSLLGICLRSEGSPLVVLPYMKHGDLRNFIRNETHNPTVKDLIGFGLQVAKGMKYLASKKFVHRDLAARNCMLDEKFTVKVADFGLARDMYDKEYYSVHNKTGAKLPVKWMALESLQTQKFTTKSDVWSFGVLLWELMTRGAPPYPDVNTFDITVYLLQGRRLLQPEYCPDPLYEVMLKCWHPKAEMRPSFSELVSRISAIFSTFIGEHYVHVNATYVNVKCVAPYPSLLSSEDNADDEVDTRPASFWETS
Description: c-Met biochemical assay (ELISA). As to the method: An ELISA format was used for the c-Met biochemical assay. This assay uses the C-terminal HIS-tagged intracellular kinase domain (956 to 1390 amino acids) human recombinant c-Met in 96-well plates. 96-Well plates (Costar #9018) coated with poly(GluTyr) (Sigma # P0275) were used in this assay. The poly(GluTyr) substrate coated on the plate was phosphorylated in a 100 μL reaction volume with 2 nM c-Met protein in an assay buffer (50 mM HEPES pH7.0, 5 mM MnCl2, 0.1% BSA, 0.5 mM sodium orthovanadate, 0.1% β-mercaptoethanol), with 0.2 μM ATP (Sigma #A7699). […] After 25 minutes of incubation, the assay reaction was stopped with 25 μL of 100 mM EDTA. The plates were then washed, and wells were treated with 100 μL of 80 ng/mL anti-4G10-HRP antibody (Upstate #16-105) for 1 h. Plates were washed one final time, and were developed with 100 μL 3,3′,5,5′-TMB (Sigma #T8665), and quenched with 100 μL 1M HCl. Plates were read on a Victor 2 plate reader (Perkin Elmer) and IC50 analysis and calculation were performed using in-house software.

Test [7] concerns the target T2, mutant Bcr-Abl-T315I kinase (Homo sapiens, UniProt P00519, T315I).
T2 construct: fused on or other part: P11274 (Breakpoint cluster region protein)
T2 sequence (P00519 242-493 T315I limits assumed): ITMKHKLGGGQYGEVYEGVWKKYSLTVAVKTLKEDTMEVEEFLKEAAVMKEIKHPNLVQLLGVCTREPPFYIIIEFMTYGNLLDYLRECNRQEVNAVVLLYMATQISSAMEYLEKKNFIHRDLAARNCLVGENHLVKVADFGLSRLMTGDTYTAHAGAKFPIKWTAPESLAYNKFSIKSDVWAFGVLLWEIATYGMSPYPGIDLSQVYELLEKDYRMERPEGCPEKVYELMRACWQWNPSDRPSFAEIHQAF
Description: Bcr-Abl mutant T315I biochemical assay. As to the method: (§3) Bcr-Abl-wt or mutant Bcr-Abl-T315I kinase (0.17 nM) was incubated with Myelin Basic Protein (MBP, 2 μM) in assay buffer consisting of 50 mM Tris pH 7.5, 10 mM MgCl2, 1 mM EGTA, 2 mM DTT, 50 μM ATP and 0.4 μCi of ^33P-ATP. Test compounds were added at varying concentrations (final DMSO conc=1%) prior to the addition of ATP. The reaction mixture was incubated for 1 hour at 32° C. The reaction was then stopped by addition of phosphoric acid (final conc=1%) and samples were transferred to filtermats and read in a betaplate reader. Inhibition of MBP phosphorylation by Bcr-Abl-wt or Bcr-Abl-T315I was analyzed by using a 4 parameter fit and in-house software.

In test [8] the test system is BaF3-Abl(E255K). The experiment in a line: Cell proliferation assay, BaF3-Abl(E255K). The format is cell-based. Conditions: Imatinib-resistant mutation.
Description: [Worded in the source for another cell line; this cell line is reported under the same test.] as §1, §2

In test [9] the test system is BaF3-Abl(T315I). Description: Cell proliferation assay, BaF3-Abl(T315I). Type of test: cell-based. To be noted: Imatinib-resistant mutation.
Description: [Worded in the source for another cell line; this cell line is reported under the same test.] as §1, §2

Test [10] addresses T3, Bcr-Abl-wt kinase (Homo sapiens, UniProt P00519).
T3 construct: fused on or other part: P11274 (Breakpoint cluster region protein)
T3 sequence (P00519 229-512 limits assumed): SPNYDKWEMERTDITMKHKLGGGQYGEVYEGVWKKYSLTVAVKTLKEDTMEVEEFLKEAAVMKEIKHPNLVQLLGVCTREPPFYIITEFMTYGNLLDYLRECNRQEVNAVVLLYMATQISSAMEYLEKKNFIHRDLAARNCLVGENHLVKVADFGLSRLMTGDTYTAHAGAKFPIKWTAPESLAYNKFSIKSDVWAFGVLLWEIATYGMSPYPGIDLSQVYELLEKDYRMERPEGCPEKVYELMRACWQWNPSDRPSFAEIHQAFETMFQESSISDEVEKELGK
Description: Bcr-Abl wild type biochemical assay. The method, then: as §3

For test [11], the system named is BaF3-Abl(Y253F). The experiment in a line: Cell proliferation assay, BaF3-Abl(Y253F). The format is cell-based. To be noted: Imatinib-resistant mutation.
Description: [Worded in the source for another cell line; this cell line is reported under the same test.] as §1, §2

In test [12] the test system is BaF3-Abl(wt). Description: Cell proliferation assay, BaF3-Abl(wt). Type of test: cell-based.
Description: [Worded in the source for another cell line; this cell line is reported under the same test.] as §1, §2

Test [13] has as its system BaF3-Abl(M351T). Description: Cell proliferation assay, BaF3-Abl(M351T). Type of test: cell-based. Conditions: Imatinib-resistant mutation.
Description: [Worded in the source for another cell line; this cell line is reported under the same test.] as §1, §2

Test [14] has as its system early phase CML. Conditions: patients with early phase CML; cited from earlier work.

Each structure is given as a SMILES string.

Usually IC50 stands for the concentration that gives 50% inhibition.

For the compound `Cc1cn(-c2cc(NC(=O)c3ccc(C)c(Nc4nccc(-c5cccnc5)n4)c3)cc(C(F)(F)F)c2)cn1` [AMN-107, nilotinib], the “inhibition of Imatinib-resistant Bcr-Abl mutations” value in [1] was “inhibit most Imatinib-resistant Bcr-Abl mutations, except for T315I”. In addition, in [2], the “potency of Bcr-Abl kinase inhibition relative to Imatinib” value is 20 fold. Besides, in test [3], the “inhibition of E255K mutant in a biochemical assay” value is given as “somewhat weak inhibition”.

With `CNC(=O)c1cc(Oc2ccc(NC(=O)Nc3cc(C(C)(C)C)nn3-c3cccc(CO)c3)c(Cl)c2)ccn1` [ANDREA-1, 4-{4-[({3-tert-Butyl-1-[3-(hydroxymethyl)phenyl]-1H-pyrazol-5-yl}carbamoyl)amino]-3-chlorophenoxy}-N-methylpyridine-2-carboxamide], the IC50 in test [4] is greater than 3000 nM; in test [5], 0.448 nM; in test [6] it was less than 10000 nM; in [7], less than 10000 nM; in [8] it was 53.9 nM; in [9] it was 71 nM. Also, the IC50 in test [10] is less than 10000 nM; in test [11] it was 4.96 nM; in [12], 2.81 nM; in test [13], 8.38 nM.

On to `Cc1ccc(NC(=O)c2ccc(CN3CCN(C)CC3)cc2)cc1Nc1nccc(-c2cccnc2)n1` [Imatinib], for which the “degree of response at haematological and cytogenetic levels” value in test [14] is “greater than 90%”.
